Experimental findings from a melting point compilation (Tetko et al.) are described below.

`Cc1ccc(P(c2ccccc2)c2ccccc2)cc1` displayed a melting point of 66 to 68 °C.
Take `CCOC(=O)c1cn[nH]c1NC(=O)Nc1ccc(F)cc1`: the melting point lay in the range of 255 to 257 °C.
The value for `Clc1ccc2c(c1)C(N1CCNCC1)=Nc1ccccc1O2` was 176 °C; that for `c1cc(SSc2ccncc2)ccn1` was 76 °C; that for `CC(C)(C)N(NC(=O)c1ccccc1)C(=O)c1ccccc1[N+](=O)[O-]` was 182 °C.
For `FC(F)(Cl)C(F)(Cl)C(F)(F)Cl`, the melting point is -72 °C.
The value for `CC1CC=C/C1=N\Nc1ccc([N+](=O)[O-])cc1[N+](=O)[O-]` (stereo not drawn) was 180 °C.
Then `COc1nsc(Nc2ccc(Cl)cc2)n1`, with 247 to 249 °C; and `Cn1ccc(-c2ccc(N)cc2)n1`, with 125 to 132 °C; and `CCOC(=O)C(C#N)=C(N)c1cc2cccc(OC)c2oc1=O`, with 251 to 252 °C.
Then `COc1cc2c(cc1OC)C(CCO)NCC2` (stereo not drawn), with 103 to 107 °C; and `O=[N+]([O-])c1ccccc1C(F)(F)F`, with 32.5 °C.
Molecule `CN1CCN(Cc2cccc(CO)c2)CC1` returned a melting point of 51 to 52 °C.
Take `N#C/C(=N/Nc1ccc(Cl)cc1)c1nc(-c2ccccc2)cs1`: the melting point is 168 °C.
Then `CC1C(=O)C23C(O)CC4C(C)(C)CCC(O)C4(CO)C2C(O)CC1C3O` (stereo not drawn), with 278 °C; and `CNCCCC12CCC(c3ccccc31)c1ccccc12`, with 92 °C.
The value for `Cc1ccc(N=C(CNc2ccc(C)cc2)Nc2ccc(C)cc2)cc1` was 136 °C; that for `Clc1cccc2ncccc12` was 45 °C.
Then `Cc1ccc(N2CCNCC2)cc1`, with 29 to 34 °C; and `O=S(=O)(Cl)c1cccc(S(=O)(=O)Cl)c1`, with 59 °C.
`Cc1cc2nsnc2cc1C` came in with a melting point of 89 to 90 °C.
The value for `CCC12CC3CC(CC(Br)(C3)C1)C2` was 23 to 24 °C; that for `O=C(C=Nc1ccccc1)c1ccc(C(=O)C=Nc2ccccc2)cc1` was 155 °C.
The value for `O=C(Cc1ccccc1[N+](=O)[O-])c1ccccc1[N+](=O)[O-]` was 166 °C; that for `O=C(Cl)c1cc(-c2cccs2)on1` was 77 to 78 °C; that for `Nc1cccc([N+](=O)[O-])c1N` was 158 °C.
Then `COC(=O)Nc1nc2cc(C(=O)C3CC3)ccc2[nH]1`, with 250 °C; and `Cc1nc(CO)cs1`, with 50 °C; and `COC(=O)c1scc(S(=O)(=O)C(C)C)c1S(=O)(=O)Cl`, with 128 to 129 °C.
`COc1cc(C=C2SC(=S)N(CNc3cccc([N+](=O)[O-])c3)C2=O)ccc1O` had a melting point of 214 to 215 °C.
Then `CC12CCC3C(CCC4CC(=NO)CCC43C)C1CCC2O` (stereo not drawn), with 198 to 199 °C.
`CCCCCCC(O)CCCCCCCCCCC(=O)O` (stereo not drawn) had a melting point of 77.8 °C.
`CC1CCC(C(C)C)C(OC(=O)CC#N)C1` (stereo not drawn): the melting point stood at 84 °C.
Regarding `Cn1[nH]c(N)c2c(=O)ccnc1-2`, the melting point worked out at 218 °C.
The value for `O=C1C(c2ccccc2)C(c2ccccc2)N1c1ccccc1` (stereo not drawn) was 134 °C; that for `CSc1nc(NC(C)C)nc(NC(C)C)n1` was 119 °C.
On to `Clc1cccc2c(-c3ccccc3)c(-c3ccccc3)[nH]c12`, for which the melting point lay in the range of 97 to 98 °C.
Then `Nc1c(F)c(F)c(-c2c(F)c(F)c(F)c(F)c2F)c(F)c1F`, with 146 °C; and `O=Cc1cc(Cl)cc(Cl)c1O`, with 96 °C.
Then `COC(=O)Nc1nc2ccc(C(=O)c3cccs3)cc2[nH]1`, with 300 to 305 °C; and `C[C@@]12CCC[C@@H]1C1=C(CC2)[C@@]2(C)CCC(=O)CC2CC1` (stereo partly drawn), with 77 to 78 °C.
The value for `CCCCCCCCCCC(Br)C(=O)O` (stereo not drawn) was 32 °C; that for `N#CC(=CNc1ccc(O)cc1)c1ccccc1` was 150 °C; that for `CC(C)(C)P(=O)(O)O` was 188 to 192 °C.
The molecule `NC(=O)c1cc(C(F)(F)F)cc(C(F)(F)F)c1` came in with a melting point of 162 °C.
The value for `CC(=O)C(C(=O)c1ccccc1)c1cc(Cl)c([N+](=O)[O-])cc1[N+](=O)[O-]` (stereo not drawn) was 131 °C; that for `CC(=O)OCC(=O)C1(O)C(OC(C)=O)CC2C3CCC4=CC(=O)C=CC4(C)C3(F)C(O)CC21C` (stereo not drawn) was 235 °C; that for `Nc1nn2c(C(F)(F)F)cc(=O)[nH]c2c1/N=N/c1ccccc1` was 283 °C.
Then `CCOC(=O)c1cc2cccc(OC)c2o1`, with 85 to 90 °C; and `Cc1ncc([N+](=O)[O-])n1CC(C)O` (stereo not drawn), with 76 °C; and `COC=CC(=O)OC`, with 3 to 4 °C.
The value for `Cc1cc(NC(=O)C=CC(=O)O)no1` was 165 to 172 °C.
`O=C(O)CCCCCCCC(O)C(O)CCCCCCO` (stereo not drawn) came in with a melting point of 100 °C.
The value for `N#Cc1ccc2c(c1)COC2=O` was 201 to 205 °C; that for `CC(=O)NC1C(O)OC(CO)C(O)C1OC(C)C(=O)O` (stereo not drawn) was 125 °C; that for `O=C(c1ccncc1)c1ccc(Cl)cc1` was 108 °C.
As for `NC(=S)c1cccc(I)c1`, the melting point was 120 to 124 °C.
Take `COc1cc(O)c2c(=O)c(-c3ccc(O)cc3)coc2c1`: the melting point worked out at 240 °C.
Then `CC(C)n1c(O)nnc1S`, with 167 to 170 °C; and `Cc1cccc(C)c1N(Cn1cccn1)C(=O)CCl`, with 85 °C; and `CCCCCCCCCCCCCCCCCCCCC(=O)O`, with 74 to 76 °C.
The value for `O=C(CCl)c1ccc(F)cc1` was 48 °C.
Take `CC(=O)NCCSC(C)=O`: the melting point stood at 32.5 °C.
With `CC(=O)Nc1ccc2c(NC(C)=O)c(O)ccc2c1`, the melting point turned out to be 235 °C.
On to `O=C(O)COc1ccc(CO)cc1`, for which the melting point was determined as 112 °C.
The value for `CCOC(=O)c1cnc2sc(C(F)(F)F)nn2c1=N` was 198 °C.
Molecule `CCC(C)(C)[C@H]1CC[C@H](O)CC1` came in with a melting point of 26 °C.
The value for `Fc1cccc(-c2cccc(F)c2)c1` was 8 °C; that for `N#CCCn1cccc(C(F)(F)F)c1=O` was 88 to 90 °C; that for `CC(C)(Oc1ccc(Cl)cc1)C(N)=O` was 126 to 129 °C.
Then `O=C1NC(=O)C(=NO)C(=O)N1`, with 236 to 242 °C; and `Cc1ccc2[nH]c(S)nc2c1`, with 290 to 293 °C; and `N#CC(=Cc1cccnc1)C1N=c2ccccc2=N1`, with 229 °C.
Then `OCc1ccc(OCc2ccccc2)cc1`, with 86 °C; and `O=c1[nH]nc2ccccn12`, with 234 °C.
The molecule `CSc1ccccc1C#N` came in with a melting point of 36 °C.
As to `CSC(=O)c1c(C(F)F)nc(C(F)(F)F)c(C(=O)SC)c1CC(C)C`, the melting point is 65 °C.
Then `FC(F)(F)c1cnc(Cl)c(Cl)c1`, with 8 to 9 °C; and `FC(F)(F)C(F)(F)C(F)(F)C(F)(F)C(F)(F)I`, with -50 °C.
The value for `CSCCC(NC(=O)c1ccc(C(F)(F)F)cc1)C(=O)NN` (stereo not drawn) was 181 to 184 °C; that for `CC(=O)OC1CCC2(C)C(CCC3C4CC=C(C=Cc5ccccc5)C4(C)CCC32)C1` (stereo not drawn) was 119 °C; that for `CC1=C(C(=O)Nc2ccccc2)S(=O)(=O)CCO1` was 120 °C.
The value for `Cc1cc(C)c(CSCc2c(C)cc(C)cc2C)c(C)c1` was 145 to 146 °C; that for `Ic1cccc(OCc2ccccc2)c1` was 51 °C.
For the molecule `CCCCOc1cc(C(N)=O)ccc1OC`, the melting point is 150 to 152 °C.
The molecule `Cc1ccccc1N1CSc2nnc(-c3ccccc3)n2C1` came in with a melting point of 199 °C.
The molecule `O=C1CC(c2ccc([N+](=O)[O-])cc2)=NN1c1ccccc1` gave a melting point of 189 °C.
The value for `Nc1ncnc2c1ncn2C1CC(O)C(COP(=O)(O)O)O1` (stereo not drawn) was 148 °C; that for `CCOC(=O)c1cnc2ccc(OC(F)(F)F)cc2c1O` was 297 to 305 °C.
The value for `COc1ccccc1-c1nnc2n1NC(c1ccc(Cl)cc1)S2` (stereo not drawn) was 203 °C.
Consider `COc1ccc(C(=CC(=O)N2CCOCC2)c2ccc(Cl)cc2)cc1OC`, for which the melting point is 148 °C.
The value for `Cc1cccc(C)c1NC(=O)C1C2C=CC(C2)C1C(=O)O` (stereo not drawn) was 167 °C; that for `COC(=O)CCc1ccc(O)cc1` was 37 to 41 °C; that for `NCCCP(=O)(O)O` was 290 to 294 °C.
The value for `CCOc1c(NN(C)C)c(=O)c1=O` was 130 to 132 °C; that for `CN(C)CCCN1c2ccccc2CCc2ccc(Cl)cc21` was 190 °C; that for `CC(C)C(C(=O)OC(C#N)c1cccc(Oc2ccccc2)c1)c1ccc(Cl)cc1` (stereo not drawn) was 60 °C.
The value for `CC(=O)c1ccc(-c2ccccc2[N+](=O)[O-])o1` was 79 °C; that for `Cc1ccc2c(c1Cc1ccccc1)CCC1C2CCC2CCCCC21C` (stereo not drawn) was 95 °C.
As for `CC(C)(C)C(=O)C(=O)O`, the melting point is 90.5 °C.
The value for `COc1ccc(C(=O)/C(=N\Nc2cc(Cl)ccc2Cl)S(=O)(=O)c2ccccc2)cc1` was 115 °C.
In turn, `CCOC(=O)c1c(-c2ccc(C)c(C)c2)csc1N` came in with a melting point of 82 °C.
Then `Nc1ccc(N=Nc2ccc([N+](=O)[O-])cc2)cc1`, with 215 °C.
Consider `Fc1c(F)c(Br)c(F)c(F)c1Br`, for which the melting point lay in the range of 78 to 81 °C.
Then `Cn1cc2cc([N+](=O)[O-])ccc2n1`, with 129 °C; and `N#CC(c1ccc(Cl)cc1)c1c(Cl)cc(-n2ncc(=O)[nH]c2=O)cc1Cl` (stereo not drawn), with 295 °C.
Then `NNC(=S)NCc1ccc2c(c1)OCO2`, with 158 to 160 °C; and `O=C(c1ccccc1O)N1CCOCC1`, with 175 °C.
